Measured values reported in publication PMC13050340 (Journal of Computer-Aided Molecular Design, 2026).

Target: T1, 3-mercaptopyruvate sulfurtransferase (3-MST) (Homo sapiens, UniProt P25325)
T1 sequence (P25325 2-297): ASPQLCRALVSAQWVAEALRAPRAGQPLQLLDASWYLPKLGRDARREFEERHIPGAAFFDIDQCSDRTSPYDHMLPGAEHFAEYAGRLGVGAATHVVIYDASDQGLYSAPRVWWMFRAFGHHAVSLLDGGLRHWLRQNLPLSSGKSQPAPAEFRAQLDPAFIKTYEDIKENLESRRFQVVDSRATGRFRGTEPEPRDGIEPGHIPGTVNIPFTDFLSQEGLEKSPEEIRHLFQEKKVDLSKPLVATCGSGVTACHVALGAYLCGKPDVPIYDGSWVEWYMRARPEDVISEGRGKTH
Assay: biochemical 3-MST inhibition assay, concentration-response

COc1cc2cc(Oc3ccc4ccc(=O)oc4c3)c(=O)oc2cc1O [compound 5, Daphnoretin]
IC50: 9.59 ± 1.22 µM
